Here are results for 5 molecules from paper PMC12088962, “Design, synthesis, and biological investigation of new thiazole-based derivatives as multi-targeted inhibitors endowed with antiproliferative, antioxidant, and antibacterial properties” (Frontiers in Chemistry, 2025).

One data set has as its system A-549 cells. The data set is described as follows: Antiproliferative MTT assay. (Tetrazolium dyes change colour on reduction, which living cells bring about.)
For data set [1], the system named is four cancer cell lines (A-549, MCF-7, Panc-1, HT-29). The data set can be described thus: Antiproliferative MTT assay, average over four cancer cell lines. The settings on record: for GI50: read-out: Antiproliferative activity, Average (GI50).
Description: (§9) Dose-response assays determined the IC50 values for the novel compounds. We derived the reported data from a minimum of two separate experiments, each consisting of three repetitions per concentration.
Assay for antiproliferative effect
The test system of the next data set is Panc-1 cells. The data set is described as follows: Antiproliferative MTT assay.
In a further data set the test system is HT-29 cells. The data set can be described thus: Antiproliferative MTT assay.
In another data set the test system is MCF-10A cells. The settings on record: 50 µM.
A further data set concerns the target E. coli DNA gyrase (Escherichia coli, UniProt P0AES6). The data set can be described thus: DNA gyrase supercoiling assay. In kind it is biochemical. The settings on record: for remaining activity at 1 µM: read-out: RA (residual activity of the enzyme), E. Coli DNA gyrase. As for the experimental part: 4.2.3. Determination of Inhibitory Activities on E. coli DNA Gyrase.
All the final compounds were tested for E. coli DNA gyrase inhibitory activity in a supercoiling assay. Activities were determined on streptavidin -coated 96-well microtiter plates from Thermo scientific Pierce. First, the plates were rehydrated with buffer (20 mM Tris -HCl with pH 7.6, 0.01% […]
immobilized. After washing off the unbound oligonucleotide, the enzyme test was performed. The reaction volume of 30 μL in buffer (35 mM Tris-HCl with pH 7.5, 4 mM MgCl 2, 24 mM KCl, 2 […]
1.5 U of DNA gyrase from E. coli or S. aureus, 0.75 μg of relaxed pNO1 plasmid, and 3 μL solution of the inhibitor in 1 0% DMSO and 0.008% Tween 20. Reaction solutions were incubated at 37 °C […]
for 30 min. After that, the TF buffer (50 mM NaOAc with pH 5.0, 50 mM NaCl and 50 mM MgCl2) was added to terminate the enzymatic reaction. After additional incubation for 30 min at rt, during which biotin-oligonucleotide-plasmid triplex was formed, the unbound plasmid was washed off using TF buffer and SybrGOLD in T10 buffer (10 mM Tris HCl wit h pH 8.0 and 1 mM EDTA) was added. The fluorescence was measured with a microplate reader (BioTek Synergy H4, excitation: 485 nm, emission: 535 nm). […]
tested compounds. GraphPad Prism software was used to calculate the IC50 values. The result is given as the average value of three independent measurements. […]

The subject of another data set is MCF-7 cells. The data set is described as follows: Antiproliferative MTT assay.
The target in the next data set is EGFR (Homo sapiens, UniProt P00533). The data set can be described thus: EGFR-TK inhibitory assay.
EGFR, sequence (P00533 669-1210): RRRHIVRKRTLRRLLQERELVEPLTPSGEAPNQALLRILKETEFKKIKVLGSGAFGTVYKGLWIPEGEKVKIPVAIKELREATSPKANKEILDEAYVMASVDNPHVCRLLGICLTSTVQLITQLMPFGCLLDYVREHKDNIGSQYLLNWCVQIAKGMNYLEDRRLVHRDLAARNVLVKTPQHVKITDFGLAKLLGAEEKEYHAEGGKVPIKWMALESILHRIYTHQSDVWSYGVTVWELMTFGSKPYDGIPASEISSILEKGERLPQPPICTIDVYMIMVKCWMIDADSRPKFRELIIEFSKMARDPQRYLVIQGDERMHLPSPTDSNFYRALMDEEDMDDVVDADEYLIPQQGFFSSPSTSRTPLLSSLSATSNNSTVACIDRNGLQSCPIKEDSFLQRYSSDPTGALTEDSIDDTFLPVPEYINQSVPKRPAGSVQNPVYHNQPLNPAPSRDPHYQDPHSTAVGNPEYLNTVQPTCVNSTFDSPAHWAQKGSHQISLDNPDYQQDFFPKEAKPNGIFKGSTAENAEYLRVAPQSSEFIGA
The target of a further data set is VEGFR-2 (Homo sapiens, UniProt P35968). The data set can be described thus: VEGFR-2 inhibitory assay.
VEGFR-2, sequence (P35968 20-1356): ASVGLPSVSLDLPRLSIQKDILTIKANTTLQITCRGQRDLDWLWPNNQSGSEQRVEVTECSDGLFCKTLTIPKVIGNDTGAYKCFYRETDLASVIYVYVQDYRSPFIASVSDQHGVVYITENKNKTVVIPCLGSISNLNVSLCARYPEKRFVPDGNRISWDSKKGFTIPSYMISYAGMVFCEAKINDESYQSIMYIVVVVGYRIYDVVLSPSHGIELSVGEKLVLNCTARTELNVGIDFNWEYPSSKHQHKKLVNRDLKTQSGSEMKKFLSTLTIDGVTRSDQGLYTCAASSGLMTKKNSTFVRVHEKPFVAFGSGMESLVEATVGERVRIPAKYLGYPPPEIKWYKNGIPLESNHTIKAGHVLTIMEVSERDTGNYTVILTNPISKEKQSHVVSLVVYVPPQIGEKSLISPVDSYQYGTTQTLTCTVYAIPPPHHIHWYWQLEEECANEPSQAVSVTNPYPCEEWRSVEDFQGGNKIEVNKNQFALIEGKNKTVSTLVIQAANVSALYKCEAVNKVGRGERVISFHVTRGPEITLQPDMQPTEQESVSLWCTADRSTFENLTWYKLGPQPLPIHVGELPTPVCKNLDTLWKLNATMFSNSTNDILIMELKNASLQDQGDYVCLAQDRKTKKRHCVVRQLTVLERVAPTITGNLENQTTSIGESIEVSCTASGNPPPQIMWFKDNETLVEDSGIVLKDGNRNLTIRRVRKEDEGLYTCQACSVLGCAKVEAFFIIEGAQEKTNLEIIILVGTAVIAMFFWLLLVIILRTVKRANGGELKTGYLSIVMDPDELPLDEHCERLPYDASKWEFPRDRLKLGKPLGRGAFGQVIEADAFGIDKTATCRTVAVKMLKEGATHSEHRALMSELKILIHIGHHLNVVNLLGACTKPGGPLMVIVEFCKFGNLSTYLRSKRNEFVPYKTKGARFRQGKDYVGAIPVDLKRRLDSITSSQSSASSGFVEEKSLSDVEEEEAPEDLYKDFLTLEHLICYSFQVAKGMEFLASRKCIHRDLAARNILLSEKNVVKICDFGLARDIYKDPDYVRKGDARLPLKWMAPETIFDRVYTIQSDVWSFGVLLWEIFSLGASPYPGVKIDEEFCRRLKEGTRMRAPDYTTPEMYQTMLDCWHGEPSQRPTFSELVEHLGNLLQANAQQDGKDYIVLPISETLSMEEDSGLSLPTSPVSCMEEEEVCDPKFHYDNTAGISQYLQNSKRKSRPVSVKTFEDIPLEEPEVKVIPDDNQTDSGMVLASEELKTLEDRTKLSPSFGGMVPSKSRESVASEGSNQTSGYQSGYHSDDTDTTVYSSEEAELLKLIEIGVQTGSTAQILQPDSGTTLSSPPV
A short description of another data set: in vitro. To be noted: human, MCF-10A mammary gland epithelial cells (normal cell line).
Another data set deals with E. coli. The data set can be described thus: MIC by twofold serial dilution. In kind it is cell-based, Escherichia coli (ATCC 11775). The settings on record: Escherichia coli; Gram-negative; read-out: Minimum inhibitory concentration (MIC), E. coli. How it is done:
(§1) The antibacterial efficacy of compounds 11b, 11e, and 12b was evaluated against Gram-positive bacteria (S. aureus and B. subtilis) and Gram-negative bacteria (E. coli and P. aeruginosa). Table 5 presents the MICs (nM) of these compounds against the evaluated bacteria, utilizing ciprofloxacin as the reference drug, determined through a twofold serial dilution approach on a 96-well microtiter plate ([Frejat F. O. et al., 2022]).
(§2) The antibacterial efficacy of compounds 11b, 11e, and 12b was evaluated against Gram-positive bacteria (S. aureus and B. subtilis) and Gram-negative bacteria (E. coli and P. aeruginosa). The MICs (nM) of the tested compounds against the evaluated bacteria were determined through a twofold serial dilution approach on a 96-well microtiter plate ([Frejat F. O. et al., 2022]). See Appendix A for more details.
(§3) 4.2. Antimicrobial activity
(§4) 4.2.1. Organisms and culture conditions […]
(§5) 4.2.2. Minimum inhibitory concentration assay
(§6) In 96-well microtiter plates and […] of fresh bacterial culture of a single McFarland unit overnight, a double serial dilution of each compound […] in sterile standard saline were prepared to every single source well. Ciprofloxacin antibiotic (5 mg / mL-1) and normal saline were included as standard reference in each assay. The plates were incubated at 37 0C overnight.
(§7) As an indicator of bacterial growth, […] of p -iodonitrotetrazolium violet (INT) was added to each well and incubated at 37 0C for 30 min. MIC values are recorded as the lowest concentration […]
(§8) tetrazolidium salt acts as an electron accepter and is reduced to a red colored formazan product by biological activity organisms. Where bacterial growth was inhibited, the solution in the well remained clear after incubation with INT. […]

Another data set relates to B. subtilis. The data set is described as follows: MIC by twofold serial dilution. In kind it is cell-based, Bacillus subtilis (ATCC 6051). How it is done:
as §1, §2, §3, §4, §5, §6, §7, §8

The next data set relates to P. aeruginosa. The data set is described as follows: MIC by twofold serial dilution. In kind it is cell-based, Pseudomonas aeuroginosa (ATCC 10145). To be noted: Pseudomonas aeruginosa; Gram-negative; read-out: Minimum inhibitory concentration (MIC), P. aeruginosa. How it is done: as §1, §2, §3, §4, §5, §6, §7, §8
The subject of a further data set is S. aureus. The data set is described as follows: MIC by twofold serial dilution. In kind it is cell-based, Staphylococcus aureus (ATCC 12600). To be noted: Staphylococcus aureus; Gram-positive; read-out: Minimum inhibitory concentration (MIC), S. aureus. How it is done: as §1, §2, §3, §4, §5, §6, §7, §8
The target in data set [2] is S. aureus topoisomerase IV. To be noted: read-out: IC50 for S. aureus topoisomerase IV (internal standard value); value stated in the supplementary method, no reference given; cited from earlier work.
The mark [3] stands for this setting: Homo sapiens, A549, read-out: Antiproliferative activity IC50 ± SEM, A-549.
[4] abbreviates: Homo sapiens, PANC-1, read-out: Antiproliferative activity IC50 ± SEM, Panc-1.
[5] abbreviates: Homo sapiens, HT-29, read-out: Antiproliferative activity IC50 ± SEM, HT-29.
[6] abbreviates: Homo sapiens, MCF7, read-out: Antiproliferative activity IC50 ± SEM, MCF-7.

Values after ≈ are worked out from the molar mass of the structure shown. Read-outs that look alike come from different tables or passages of the source.

Description for A-549 cells: as §9
Assay for antiproliferative effect
Description for HT-29 cells: as §9
Assay for antiproliferative effect
Description for MCF-7 cells: as §9
Assay for antiproliferative effect
Description for Panc-1 cells: as §9
Assay for antiproliferative effect
Protocol for VEGFR-2: The outcomes are presented as IC50 values.
was added to each well followed by incubation of 1h and then washing of the plates using buffer.
The enhancement solution was added to each well and the signal was recorded at excitation and
The autophosphorylation percentage inhibition by compounds was calculated using the following equation:
Prepare all the solutions using autoclaved, deionized water and analytical grade reagents.
and store all the reagents at room temperature (unless indicated otherwise).
solution, add 5 mL ultra-pure water; 1×Kinase Assay Buffer: add 25 mL HEPES solution (1 M),
water, adjust pH to 7.5 and constant volume to 500 mL using ultrapure water; 4×Stop solution (40
mM): Mix 0.8 mL of the foregoing EDTA solution, 1 mL 10×Detection Buffer and 8.2 mL ultra-
pure water; 1×Detection Buffer: Mix 1 mL 10×Detection Buffer with 9 mL water; 4×VEGFR
μM) was added to 624 μL 1×Kinase Assay Buffer and mixed; 4×ULight™-labeled JAK1
(substrate) (200 nM, 25 times diluted): 24 μL ULight™-labeled JAK1 (mother liquor
concentration 5 μM) was added to 576 μL 1×Kinase Assay Buffer and mixed; 4×ATP Solution
(40 μM, 250 times diluted): add 3 μL ATP solution (10 mM) to 747 μL 1×Kinase Assay Buffer
2×substrate/ATP Mix: 560 μL foregoing 4×ULight™-labeled JAK1 and 560 μL 4×ATP solution
and mixed (prepared before use). The assays used an ULight-labeled peptide substrate and a
Europium-W1024-labeled antiphosphotyrosine antibody. The VEGFR-2 was purchased from
Carna Biosciences, Inc. (New York, USA). The 384-well plates were obtained from PerkinElmer.
5 μL 2×VEGFR-2 kinase solution (0.5 nM)
was added to 384-well plates homogeneous mixing and pre-reaction at room temperature for 30 min. Next, 2.5 μL 4×Ultra ULightTM-JAK-1(Tyr1023) Peptide (200 nM)/ATP (40 μM) was added to the corresponding wells of a 384-well plate. Negative control: 2.5 μL/well 4×substrate/ATP mixture and 7.5 μL 1×kinase assay buffer in 384-well plate well. Positive control:
μL/well 2×VEGFR-2 kinase solution was added to the 384-well plate, The final concentration of DMSO in the mixing system was 4%. After incubation at room temperature and dark for 60 min, 5 μL 4×stop solution was added to corresponding wells to react for 5 min and then 5 μL 4×detection mix was added to the corresponding wells of a 384-well plate. The mixture was centrifugally mixed and stayed for 60 min at room temperature for color development. The plate was read using a Envision plate reader. The inhibition rate (%) = (positive well reading-compound well reading)/(positive well reading-negative well reading)×100. The corresponding IC50 values were calculated using GraphPad Prism 5.0.

In the case of “(E)-3-(2-((5-(3-(4-Methoxyphenyl)acryloyl)-4-methylthiazol-2-yl)thio) acetyl)-2H-chromen-2-one [Compound 11c]”, the IC50 (in general, the concentration that gives 50% inhibition) turned out to be 0.052 ± 0.004 µM in the data set with A-549 cells (read-out: Antiproliferative activity IC50 ± SEM, A-549, lung cancer A-549, MTT); 0.054 ± 0.004 µM with Panc-1 cells (read-out: Antiproliferative activity IC50 ± SEM, Panc-1, pancreatic cancer Panc-1, MTT); 0.057 ± 0.004 µM with HT-29 cells (read-out: Antiproliferative activity IC50 ± SEM, HT-29, colon cancer HT-29, MTT); 0.056 ± 0.004 µM in the data set on MCF-7 cells (read-out: Antiproliferative activity IC50 ± SEM, MCF-7, breast cancer MCF-7, MTT). In addition, the “Fold less potent than compound 11f (GI50)” value in [1] is “twofold”. The GI50 (usually the concentration at which growth is held to half of that of the control) in data set [1] (average IC50 over the four cancer cell lines) worked out at 0.055 µM. Besides, the Cell viability % in the data set with MCF-10A cells is recorded as 90%. In addition, the “RA (residual activity of the enzyme), E. Coli DNA gyrase” value on E. coli DNA gyrase (at 1 μM of compound) is 68%.
`COc1ccc(/C=C/C(=O)c2sc(SCC(=O)c3cc4cc(Br)ccc4oc3=O)nc2C)cc1` [Compound 11f, (E)-6-Bromo-3-(2-((5-(3-(4-methoxyphenyl)acryloyl)-4-methylthiazol-2-yl)thio)acetyl)-2H-chromen-2-one]: in the data set with A-549 cells (A-549), the “Fold more potent than erlotinib (IC50), A-549” value came to 1.2 fold. The IC50 with A-549 cells (setting [3]) came to 0.025 ± 0.001 µM; with Panc-1 cells (setting [4]) it was 0.026 ± 0.001 µM; against EGFR, 0.071 ± 0.003 µM; against VEGFR-2, 2.9 ± 0.01 µM; in the data set on HT-29 cells (setting [5]) it was 0.028 ± 0.001 µM; in the data set with MCF-7 cells (setting [6]), 0.029 ± 0.001 µM. In [1] (Homo sapiens), the GI50 was found to be 0.027 µM. The “Fold more active than erlotinib (GI50)” value in [1] (four cancer cell lines) is listed as 1.2 fold. In addition, the remaining activity at 1 µM at E. coli DNA gyrase was 71%. For the same molecule, in the data set “in vitro”, the viability (as a rule, a per cent measure of how many cells are alive, often set against a control) at 96 h, 50 µM came out at 93%. The “Fold more potent than erlotinib (IC50), MCF-7” value with MCF-7 cells (MCF-7) is reported as 1.4 fold.
On to `Cc1nc(SCC(=O)c2cc3cc(Br)ccc3oc2=O)sc1C(=O)/C=C/c1ccc(Cl)cc1` [Compound 11e, (E)-6-Bromo-3-(2-((5-(3-(4-chlorophenyl)acryloyl)-4-methylthiazol-2-yl)thio)acetyl)-2H-chromen-2-one], for which the MIC in the data set with E. coli turned out to be 0.048 ± 0.003 µM (≈ 0.0269 µg/mL); with B. subtilis (Bacillus subtilis, Gram-positive, read-out: Minimum inhibitory concentration (MIC), B. subtilis), 0.022 ± 0.001 µM (≈ 0.0123 µg/mL); with P. aeruginosa it was 0.053 ± 0.003 µM (≈ 0.0297 µg/mL); in the data set with S. aureus, 0.027 ± 0.001 µM (≈ 0.0151 µg/mL). Also, the IC50 worked out at 0.037 ± 0.002 µM with A-549 cells (setting [3]); 0.04 ± 0.002 µM with Panc-1 cells (setting [4]); 0.089 ± 0.004 µM against EGFR; 4.9 ± 0.03 µM on VEGFR-2; 0.042 ± 0.002 µM with HT-29 cells (setting [5]); 0.19 ± 0.013 µM at E. coli DNA gyrase. Moreover, the IC50 with MCF-7 cells (setting [6]) was found to be 0.043 ± 0.002 µM. For the same molecule, the “Fold less potent than compound 11f (GI50)” value in [1] was 1.5 fold. For the same molecule, in [1] (Homo sapiens), the GI50 turned out to be 0.041 µM. In addition, the “Fold less efficient than ciprofloxacin (MIC), B. subtilis” value with B. subtilis is 2.2 fold. The viability at 96 h, 50 µM in “in vitro” was determined as 91%.
With `COc1ccc(/C=C/C(=O)c2sc(SCC(=O)c3cc4ccccc4o3)nc2C)cc1` [Compound 12c, (E)-1-(2-((2-(Benzofuran-2-yl)-2-oxoethyl)thio)-4-methylthiazol-5-yl)-3-(4-methoxyphenyl)prop-2-en-1-one], the IC50 worked out at 0.033 ± 0.002 µM in the data set with A-549 cells (setting [3]); 0.036 ± 0.002 µM in the data set with Panc-1 cells (setting [4]); 0.083 ± 0.003 µM on EGFR; 4.05 ± 0.02 µM against VEGFR-2; 0.037 ± 0.002 µM in the data set with HT-29 cells (setting [5]); 0.039 ± 0.002 µM with MCF-7 cells (setting [6]). Further, the GI50 in [1] (Homo sapiens) was 0.036 µM. For the same molecule, the remaining activity at 1 µM at E. coli DNA gyrase was 59%. In addition, the viability at 96 h, 50 µM in “in vitro” came out at 91%.
As for `CO[C@@H]1[C@@H](OC(N)=O)[C@@H](O)[C@H](Oc2ccc3c(O)c(NC(=O)c4ccc(O)c(CC=C(C)C)c4)c(=O)oc3c2C)OC1(C)C` [Novobiocin], in [2], the IC50 is 26.7 µM.
